For 1 compound, inhibition results are on record in article PMC6704710, “Preclinical evaluation of 3D185, a novel potent inhibitor of FGFR1/2/3 and CSF-1R, in FGFR-dependent and macrophage-dominant cancer models” (Journal of Experimental & Clinical Cancer Research : CR, 2019).

Test in all cases: Eurofins kinase panel
Common to all, as to format: biochemical
Conditions in all cases: read-out: Inhibition rate (%)

One test addresses T1, CDK4/cyclinD3(h) (Homo sapiens, UniProt P11802).
T1 construct: purchased Eurofins (KinaseProfiler)
As to the method: (§1) Active FGFR1–4, VEGFR1, KDR, VEGFR3, PDGFRα and PDGFRβ proteins were purchased from Eurofins (Fremont, United States), and kinase activity was assessed using ELISA, as previously reported. […]. Increasing concentrations of ATP were diluted for the kinase reaction in the ATP competition assay. CSF-1R kinase activity was analyzed using the Z’-LYTE™ Kinase Assay Kit (Thermo Fisher, United States). The assay formats are described in the SelectScreen Kinase Profiling Service Zlyte protocol. IC50 values were calculated by dose-response curve fitting using Prism (Graph Pad).

A further test has as its target T2, EphA8(h) (Homo sapiens, UniProt P29322).
T2 construct: purchased Eurofins (KinaseProfiler)
T2 sequence (P29322 28-1005): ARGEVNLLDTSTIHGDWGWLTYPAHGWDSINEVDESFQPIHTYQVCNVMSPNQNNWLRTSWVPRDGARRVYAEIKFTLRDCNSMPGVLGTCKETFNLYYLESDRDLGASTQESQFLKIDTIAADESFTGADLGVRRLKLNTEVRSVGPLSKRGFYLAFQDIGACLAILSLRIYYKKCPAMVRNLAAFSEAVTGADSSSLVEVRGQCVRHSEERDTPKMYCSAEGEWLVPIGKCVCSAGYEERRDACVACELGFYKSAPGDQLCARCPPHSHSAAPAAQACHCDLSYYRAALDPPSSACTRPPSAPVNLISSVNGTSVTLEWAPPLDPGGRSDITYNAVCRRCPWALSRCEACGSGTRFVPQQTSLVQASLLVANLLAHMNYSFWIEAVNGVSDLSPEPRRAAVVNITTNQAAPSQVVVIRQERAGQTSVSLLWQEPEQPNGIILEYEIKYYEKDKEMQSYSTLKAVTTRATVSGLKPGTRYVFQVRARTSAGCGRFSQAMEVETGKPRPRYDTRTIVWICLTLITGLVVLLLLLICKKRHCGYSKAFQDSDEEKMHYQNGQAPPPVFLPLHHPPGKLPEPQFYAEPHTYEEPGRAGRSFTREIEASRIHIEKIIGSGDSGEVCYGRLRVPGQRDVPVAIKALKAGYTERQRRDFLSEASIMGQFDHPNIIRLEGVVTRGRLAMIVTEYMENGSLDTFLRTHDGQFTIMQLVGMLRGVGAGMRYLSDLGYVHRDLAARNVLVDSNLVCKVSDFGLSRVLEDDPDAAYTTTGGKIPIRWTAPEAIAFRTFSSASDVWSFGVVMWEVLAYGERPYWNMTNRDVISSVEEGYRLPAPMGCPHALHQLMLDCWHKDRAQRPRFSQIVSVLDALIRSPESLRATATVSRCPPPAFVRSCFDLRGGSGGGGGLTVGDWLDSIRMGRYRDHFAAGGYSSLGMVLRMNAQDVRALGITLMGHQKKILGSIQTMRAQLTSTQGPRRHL
As to the method: as §1

The next test addresses T3, MKK6(h) (Homo sapiens, UniProt P52564).
T3 construct: purchased Eurofins (KinaseProfiler)
T3 sequence (P52564 1-334): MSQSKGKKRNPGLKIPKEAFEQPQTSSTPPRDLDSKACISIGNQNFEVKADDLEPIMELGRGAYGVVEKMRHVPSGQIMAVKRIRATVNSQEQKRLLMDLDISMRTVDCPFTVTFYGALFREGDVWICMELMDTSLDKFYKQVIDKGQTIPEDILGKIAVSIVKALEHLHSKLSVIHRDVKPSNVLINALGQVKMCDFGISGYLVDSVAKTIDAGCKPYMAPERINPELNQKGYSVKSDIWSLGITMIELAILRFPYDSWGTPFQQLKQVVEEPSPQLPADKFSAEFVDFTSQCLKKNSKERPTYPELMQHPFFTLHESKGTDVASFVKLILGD
As to the method:
as §1

The next test concerns the target T4, PKG1α(h) (Homo sapiens, UniProt Q13976).
T4 construct: purchased Eurofins (KinaseProfiler)
T4 sequence (Q13976 1-671): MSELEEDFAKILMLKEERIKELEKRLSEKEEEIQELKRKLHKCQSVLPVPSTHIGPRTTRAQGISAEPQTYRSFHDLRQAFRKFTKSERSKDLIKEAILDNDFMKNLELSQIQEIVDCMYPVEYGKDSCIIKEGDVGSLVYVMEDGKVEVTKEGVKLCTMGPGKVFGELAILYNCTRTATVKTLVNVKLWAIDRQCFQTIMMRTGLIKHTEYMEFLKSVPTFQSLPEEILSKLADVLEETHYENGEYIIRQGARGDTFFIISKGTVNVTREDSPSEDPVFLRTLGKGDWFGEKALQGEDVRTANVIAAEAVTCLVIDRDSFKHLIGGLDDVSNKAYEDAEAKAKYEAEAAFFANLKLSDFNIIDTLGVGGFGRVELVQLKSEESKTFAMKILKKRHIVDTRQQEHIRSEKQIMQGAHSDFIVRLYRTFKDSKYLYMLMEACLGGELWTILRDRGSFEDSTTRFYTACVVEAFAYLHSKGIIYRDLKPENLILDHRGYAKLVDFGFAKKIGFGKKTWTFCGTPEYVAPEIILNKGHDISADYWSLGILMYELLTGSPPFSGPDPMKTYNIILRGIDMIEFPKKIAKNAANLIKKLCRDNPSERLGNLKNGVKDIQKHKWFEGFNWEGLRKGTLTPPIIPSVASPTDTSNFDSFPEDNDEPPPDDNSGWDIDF
As to the method: as §1

For another test, the target named is T5, TSSK1(h) (Homo sapiens, UniProt Q9BXA7).
T5 construct: purchased Eurofins (KinaseProfiler)
T5 sequence (Q9BXA7 1-367): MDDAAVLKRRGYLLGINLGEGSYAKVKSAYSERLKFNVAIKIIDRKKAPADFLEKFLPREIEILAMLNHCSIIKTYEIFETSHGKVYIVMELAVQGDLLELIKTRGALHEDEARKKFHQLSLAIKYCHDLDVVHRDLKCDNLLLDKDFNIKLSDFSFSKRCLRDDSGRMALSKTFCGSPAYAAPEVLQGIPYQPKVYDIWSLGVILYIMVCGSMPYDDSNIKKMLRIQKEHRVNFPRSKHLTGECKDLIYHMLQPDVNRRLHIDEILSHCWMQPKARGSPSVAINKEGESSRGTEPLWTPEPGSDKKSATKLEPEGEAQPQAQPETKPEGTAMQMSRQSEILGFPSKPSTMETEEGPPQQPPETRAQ
As to the method:
as §1

A further test addresses T6, Wee1(h) (Homo sapiens, UniProt P30291).
T6 construct: purchased Eurofins (KinaseProfiler)
As to the method:
as §1

T6 sequence (P30291 whole entry): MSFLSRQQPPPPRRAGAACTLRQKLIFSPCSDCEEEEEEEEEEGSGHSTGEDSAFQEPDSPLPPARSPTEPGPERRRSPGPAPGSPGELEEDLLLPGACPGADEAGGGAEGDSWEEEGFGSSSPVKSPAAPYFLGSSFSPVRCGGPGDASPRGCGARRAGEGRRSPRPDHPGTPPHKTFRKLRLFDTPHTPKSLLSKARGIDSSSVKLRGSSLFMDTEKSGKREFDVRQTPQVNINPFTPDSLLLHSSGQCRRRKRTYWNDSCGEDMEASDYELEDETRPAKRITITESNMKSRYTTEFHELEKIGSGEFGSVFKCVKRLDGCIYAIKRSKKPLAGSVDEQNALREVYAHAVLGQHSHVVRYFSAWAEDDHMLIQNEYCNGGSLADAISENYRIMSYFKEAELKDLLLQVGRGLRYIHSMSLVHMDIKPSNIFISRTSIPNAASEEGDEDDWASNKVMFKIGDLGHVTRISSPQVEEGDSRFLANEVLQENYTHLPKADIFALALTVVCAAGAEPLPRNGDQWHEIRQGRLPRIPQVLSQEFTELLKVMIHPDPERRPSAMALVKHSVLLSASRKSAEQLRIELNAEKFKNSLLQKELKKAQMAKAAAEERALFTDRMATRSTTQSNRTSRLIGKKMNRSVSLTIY
T1 sequence (P11802 whole entry): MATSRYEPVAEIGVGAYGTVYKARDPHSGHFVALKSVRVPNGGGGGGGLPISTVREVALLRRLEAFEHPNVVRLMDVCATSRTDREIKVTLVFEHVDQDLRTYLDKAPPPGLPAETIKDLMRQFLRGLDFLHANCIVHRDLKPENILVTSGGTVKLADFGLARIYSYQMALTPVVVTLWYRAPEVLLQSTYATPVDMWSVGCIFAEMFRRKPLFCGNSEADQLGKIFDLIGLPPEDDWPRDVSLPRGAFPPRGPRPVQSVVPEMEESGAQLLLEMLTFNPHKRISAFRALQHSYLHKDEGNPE
T1 sequence (P30281 whole entry partner): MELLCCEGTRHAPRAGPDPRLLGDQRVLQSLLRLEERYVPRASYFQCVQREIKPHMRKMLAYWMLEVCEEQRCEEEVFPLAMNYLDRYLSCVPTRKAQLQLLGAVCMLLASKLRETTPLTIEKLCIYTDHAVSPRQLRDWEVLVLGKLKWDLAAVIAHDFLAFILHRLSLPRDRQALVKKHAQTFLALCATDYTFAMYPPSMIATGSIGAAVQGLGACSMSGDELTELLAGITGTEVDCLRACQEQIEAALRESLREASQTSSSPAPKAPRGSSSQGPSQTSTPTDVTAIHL

Take `COc1cc(OC)c(Cl)c(-c2ccc3c(NC(=O)c4ccc(N5CCNC(C)(C)C5)cc4)n[nH]c3n2)c1Cl` [3D185]: the inhibition (commonly the drop in the measured response relative to a control, in per cent) at 0.01 µM on CDK4/cyclinD3(h) (10 nM) is 5%; at EphA8(h) (10 nM) it was 1%; on MKK6(h) (10 nM), 11%; at PKG1α(h) (10 nM), -1%; at TSSK1(h) (10 nM), 5%; at Wee1(h) (10 nM), -5%. For the same compound, the inhibition at 0.1 µM on CDK4/cyclinD3(h) (100 nM) is -4%; at EphA8(h) (100 nM), 5%; on MKK6(h) (100 nM), 0%; on PKG1α(h) (100 nM), -2%; at TSSK1(h) (100 nM), 2%; on Wee1(h) (100 nM), -16%. The inhibition at 1 µM at CDK4/cyclinD3(h) (1000 nM) turned out to be 11%; on EphA8(h) (1000 nM) it was 29%; at MKK6(h) (1000 nM), 2%; at PKG1α(h) (1000 nM) it was 1%; at TSSK1(h) (1000 nM), 13%; on Wee1(h) (1000 nM), 6%.
